Converted amounts (≈) assume the structure as drawn. Read-outs that look alike come from different tables or passages of the source.
Legend:
NC59 = experiment: Cytotoxicity (XTT kit), human colon carcinoma cell line NC59; format: cell-based; details: for IC50: read-out: IC-50 (cytotoxicity)
Experimental: (§1) The anti-tumoral activity of the compounds with general formula (I) was studied, determining their effect on cell lines of human colon carcinoma (TD 20 and NC 59). The two cell lines have the wild protein K-Ras. TD20 contains a mutation of the p53 suppressor gene, while NC59 has the p53 wild protein.
(§2) Both cell lines were cultured in a DMEM medium (Life Technologies) supplemented with 10% foetal bovine serum (Life Technologies) at 37° C. and 5% CO2.
(§3) Cytotoxicity tests were carried out using the XTT kit (Boehringer-Manheim) which measures the cell capability to metabolise a tetrazoyl salt to formazan.

TD 20 = experiment: Cytotoxicity (XTT kit), human colon carcinoma cell line TD20; format: cell-based; details: for IC50: read-out: IC-50 (cytotoxicity)
Experimental: as §1, §2, §3

TD20 = experiment: Induction of apoptosis in tumour cell line TD20; format: cell-based, human; details: 100 μM
Experimental: In order to obtain a deeper knowledge of the action mechanism of these compounds the capability to induce apoptosis in the tumour cell line TD20 of the compound of example 3 was studied (dose 100 μM).

NC59 cells = experiment: Signal transduction paths associated to apoptosis in NC59 cells; format: cell-based, human; details: 100 μM, 5 and 20 hours of exposure
Experimental: The signal transduction paths associated to the apoptosis process were then studied. After exposing NC59 cells to a 100 μM concentration of the compound of example 3, the expression levels were studied for p53, FAK and β-actine and the activation level of MAP kinases, JNK and PKB/Akt, after 5 and 20 hours of exposure.

MDAMB 453 = experiment: Cytotoxicity (XTT kit), mammary carcinoma cell line MDAMB 453; format: cell-based; details: for viability at 1 µM / viability at 20 µM / viability at 40 µM / viability at 60 µM / viability at 80 µM: MDA-MB-453, read-out: % Viability of mammary cancer cells ± SD; for IC50: read-out: IC-50 (cytotoxicity)
Experimental: The anti-tumoral activity of the compounds with general formula (I) was studied, determining their effect on a mammary carcinoma cell line (MDAMB 453). The cell line was cultured in a DMEM medium (Life Technologies) supplemented with 10% foetal bovine serum (Life Technologies) at 37° C. and 5% CO2.
as §3

[1] = test system: promoter of the human VEGF gene; experiment: Inhibition of the induction of VEGF: promoter-luciferase in transfected Caco-2 cells, TPA; format: cell-based; details: TPA 16 hours, read-out: Inhibition of the induction of VEGF IC-50
Description: This activity has been studied determining the inhibition of the induction of the expression of VEGF. The increased expression of vascular-endothelial growth factor (VEGF) has been related to tumour progression and angiogenesis. VEGF is a proangiogenic factor, promoting mitogenesis, migration and an increased vascular permeability of in vitro endothelial cells. It has been shown recently that COX-2 can regulate the angiogenesis process induced by colon cancer cells, increasing the expression of proangiogenic factors by said cells. Inhibition of COX-2 may block this process, inhibiting the expression of some of these factors, such as VEGF.
(§4) In order to study the antiangiogenic activity of the products with general formula (I), the expression of the VEGF promoter was studied in a basal and stimulated situation using the Caco-2 human colon carcinoma cell line, temporally transfected with a vector containing the promoter f the human VEGF gene. Once the test conditions were established the capability of the product studied to inhibit the expression of the VEGF and TF genes was studied by measuring the luciferase activity of their promoters.
In the test 1.25×10^5 Caco-2 cells were used temporally transfected with t corresponding DNA in 500 μl of DEMEM-10% FCS medium in 24 dimple plates. […]

TF = experiment: Inhibition of the induction of TF: promoter-luciferase in transfected Caco-2 cells, TPA; format: cell-based; details: Homo sapiens, TPA 16 hours, read-out: Inhibition of the induction of TF IC-50
Description: In turn, VEGF also induces the expression of Tissue Factor (TF) in monocyte membranes, epithelial cells and endothelium. Although the main function of TF is to initiate the coagulation cascade, it can transduce intracellular signals participating in metastasis and angiogenesis associated to tumours. TF facilitates in vivo growth of the tumour, favouring angiogenesis.
as §4
In the test 1.25×10^5 Caco-2 cells were used temporally transfected with t corresponding DNA in 500 μl of DEMEM-10% FCS medium in 24 dimple plates. The cells were pre-treated for 1 hour with the compounds to be tested, and later stimulated with TPA for 16 hours. Afterwards cell extracts were obtained and their luciferase activity examined, determining the protein concentration.

[2] = test system: promoter of the gene COX-2; experiment: Inhibition of the induction of COX-2: stable transfectant JURKAT cells, COX-2 promoter-luciferase, TPA+ionomycine; format: cell-based; details: Homo sapiens
TNF-α = experiment: Inhibition of TNF-α, zymosan air pouch model in mice (ELISA); format: in vivo; details: i.p.
Experimental: The study of the inhibitory activity of TNF-α has been performed according to the method described by P. Klemen et al. (Europ. J. Pharmacol. 1995 281: 69-74), consisting of determining the production of TNF-α in the localised area where the inflammation is acute, specifically using the zymosan inflated air pouch model in mice. The TNF-α present in the inflammatory exudates produced in said pouch as a result of the stimulation with zymosan was determined. The analytical determination of TNF-α was performed by ELISA.

[3] = Homo sapiens, Colon carcinoma cell, read-out: % Viability of colorectal cancer cells ± SD
[4] = Homo sapiens, Colon carcinoma cell, 30 μM, read-out: % Viability of colorectal cancer cells ± SD
[5] = Homo sapiens, Colon carcinoma cell, 100 μM, read-out: % Viability of colorectal cancer cells ± SD
[6] = Homo sapiens, Colon carcinoma cell
[7] = Homo sapiens, Colon carcinoma cell, 80 μM, read-out: % Viability of colorectal cancer cells ± SD

SMILES: NS(=O)(=O)c1ccc(N2N=C(C(F)(F)F)CC2c2ccc(F)cc2F)cc1 (racemic) [Example 3, 1-(4-aminosulphonylphenyl)-5(2,4-difluorophenyl)-4,5-dihydro-3-trifluoromethyl-1H-pyrazol]
- viability at 1 µM (NC59; [3]): 99.64 ± 0.51%
- viability at 20 µM (NC59; [3]): 76.5 ± 8.7%
- viability at 30 µM (NC59; [4]): 56.5 ± 0.25%
- viability at 40 µM (NC59; [3]): 16.7 ± 10.5%
- viability at 60 µM (NC59; [3]): 1.16 ± 0.83%
- viability at 100 µM (NC59; [5]): 0%
- IC50 (NC59; [6]): 30 µM
- IC50 (NC59): 29.9 µM
- viability at 1 µM (TD 20; [3]): 98.6 ± 2.83%
- viability at 20 µM (TD 20; [3]): 84.5 ± 3.05%
- viability at 30 µM (TD 20; [4]): 66.3 ± 5.84%
- viability at 40 µM (TD 20; [3]): 27.4 ± 4.12%
- viability at 60 µM (TD 20; [3]): 1.79 ± 2.09%
- viability at 100 µM (TD 20; [5]): 0.69 ± 0.01%
- IC50 (TD 20; [6]): 34 µM
- IC50 (TD 20): 33.9 µM
- apoptotic cells (TD20; after 24 h): 20%
- apoptotic cells (TD20; after 48 h): 80%
- signal transduction paths activated (p53, FAK, β-actine expression; MAP kinases, JNK, PKB/Akt activation) (NC59 cells): activation of signal transduction paths other than p53, JNK or p38
- viability at 1 µM (MDAMB 453; Homo sapiens, MDAMB 453): 94.8 ± 8.71%
- viability at 20 µM (MDAMB 453; Homo sapiens, MDAMB 453): 31.5 ± 9.12%
- viability at 40 µM (MDAMB 453; Homo sapiens, MDAMB 453): 12.8 ± 4.8%
- viability at 60 µM (MDAMB 453; Homo sapiens, MDAMB 453): 5.97 ± 5.06%
- viability at 80 µM (MDAMB 453; Homo sapiens, MDAMB 453): 2.84 ± 1.71%
- IC50 [1]: 20 µg/mL (≈ 49.3 µM)
- IC50 (TF): 25 µg/mL (≈ 61.7 µM)

SMILES: CS(=O)(=O)c1ccc(C2CC(C(F)(F)F)=NN2c2ccc(F)cc2)cc1 (stereo not drawn) [Example 10]
- inhibition at 0.5 µg/mL ([2]; Clone C7, 0.5 μg/ml): 20%
- inhibition at 5 µg/mL ([2]; Clone C7, 5 μg/ml): 55%
- inhibition at 50 µg/mL ([2]; Clone C7, 50 μg/ml): 85%
- IC50 ([2]; Clone C7, read-out: IC-50 (μg/ml), inhibition of luciferase activity): 5.8 µg/mL (≈ 15 µM)
- inhibition at 0.5 µg/mL ([2]; Clone C9, 0.5 μg/ml): 40%
- inhibition at 5 µg/mL ([2]; Clone C9, 5 μg/ml): 75%
- inhibition at 50 µg/mL ([2]; Clone C9, 50 μg/ml): 85%
- IC50 ([2]; Clone C9, read-out: IC-50 (μg/ml), inhibition of luciferase activity): 0.9 µg/mL (≈ 2.33 µM)
- inhibition at 0.5 µg/mL ([2]; Clone F9, 0.5 μg/ml): 32%
- inhibition at 5 µg/mL ([2]; Clone F9, 5 μg/ml): 65%
- inhibition at 50 µg/mL ([2]; Clone F9, 50 μg/ml): 95%
- IC50 ([2]; Clone F9, read-out: IC-50 (μg/ml), inhibition of luciferase activity): 1.8 µg/mL (≈ 4.66 µM)
- viability at 1 µM (NC59; [3]): 92.1 ± 9.35%
- viability at 20 µM (NC59; [3]): 76.1 ± 7.17%
- viability at 40 µM (NC59; [3]): 15.8 ± 9.37%
- viability at 60 µM (NC59; [3]): 2.59 ± 1.54%
- viability at 80 µM (NC59; [7]): 1.66 ± 1.57%
- IC50 (NC59; [6]): 27 µM
- IC50 (NC59): 27.2 µM
- viability at 1 µM (TD 20; [3]): 95 ± 8.87%
- viability at 20 µM (TD 20; [3]): 90.2 ± 5.97%
- viability at 40 µM (TD 20; [3]): 43.1 ± 13.8%
- viability at 60 µM (TD 20; [3]): 5.42 ± 4.11%
- viability at 80 µM (TD 20; [7]): 3.22 ± 3.46%
- IC50 (TD 20; [6]): 38 µM
- IC50 (TD 20): 37.9 µM
- IC50 (MDAMB 453; Homo sapiens, MDA-MB-453, MDAMB 453): 18 µM
- viability at 1 µM (MDAMB 453; Homo sapiens, MDAMB 453): 97.5 ± 3.25%
- viability at 20 µM (MDAMB 453; Homo sapiens, MDAMB 453): 42.8 ± 9.31%
- viability at 40 µM (MDAMB 453; Homo sapiens, MDAMB 453): 33.3 ± 7.34%
- viability at 60 µM (MDAMB 453; Homo sapiens, MDAMB 453): 8.25 ± 6.82%
- viability at 80 µM (MDAMB 453; Homo sapiens, MDAMB 453): 5.8 ± 4.76%
- IC50 (MDAMB 453; MDAMB 453): 17.9 µM
- IC50 [1]: 25 µg/mL (≈ 64.7 µM)
- IC50 (TF): 22 µg/mL (≈ 56.9 µM)
- % Inhibition of TNF-α in inflammatory exudate stimulated by zymosan (TNF-α; 0.039 mg/kg): 12.6 ± 2.6%
- % Inhibition of TNF-α in inflammatory exudate stimulated by zymosan (TNF-α; 0.156 mg/kg): 15.7 ± 4.9%
- % Inhibition of TNF-α in inflammatory exudate stimulated by zymosan (TNF-α; 0.625 mg/kg): 46.8 ± 12.5%
- % Inhibition of TNF-α in inflammatory exudate stimulated by zymosan (TNF-α; 2.5 mg/kg): 58.8 ± 13.6%
- DE-50, inhibition of TNF-α (TNF-α): DE-50 = 1.20 mg/kg, i.p.

From US20040034082A1, “Utilization of pyrazoline derivatives in the preparation of a medicament for the prevention and/or treatment of proliferative cell diseases” (priority 2001, published 2004)
